Patent US20240389600A1 (The United States of America, as represented by the …, priority 2023, published 2024)
Read-outs that look alike come from different tables or passages of the source.

How the values were obtained:
Georgia-06G peanut seeds [1] = details: 20° C.
Georgia-06G peanut seeds [2] = details: 3% H2O2 replaced every 24 h, seed to liquid 1:8 w/v, 20° C., 72 h, Georgia-06G (2021 harvest)
Georgia-06G peanut seeds [3] = test: Static incubation of hydrated peanut seeds with H2O2; resveratrol content by HPLC; details: for resveratrol content in seeds: 48 and 72-h incubation

OO [H2O2, hydrogen peroxide]
resveratrol accumulation (Georgia-06G peanut seeds [1]; 2% H2O2, in-shaker, after 72 h, Georgia-06G 2021): exceeding 300 μg/g of seed dry weight | resveratrol concentration (Georgia-06G peanut seeds [1]; 3% H2O2 replaced every 24 h, seed to liquid 1:4 w/v, shaker, 72 h, Georgia-06G (2021 harvest)): 400 µg/g | concentration of resveratrol in seed extract chromatogram (Georgia-06G peanut seeds [1]; 3 portions of 3% H2O2 (new charge every 24 h), shaker, 72 h, Georgia-06G 2021): 334 μg/g of dry weight | resveratrol concentration (Georgia-06G peanut seeds [2]): 600 µg/g | resveratrol content in seeds (Georgia-06G peanut seeds [3]; 2% H2O2, 20° C., Georgia-06G (2021 harvest), FIG. 13): 100 to 200 µg/g | resveratrol production under moderate acidic conditions (Georgia-06G peanut seeds [3]; 2% H2O2, 20° C., static, acidic conditions, Georgia-06G 2020 harvest): almost completely blocked resveratrol production | levels of resveratrol in seeds (Georgia-06G peanut seeds [3]; 3% H2O2, static, 15° C., after 72 and 96 h, Georgia-06G (2021 harvest)): 20 to 50 µg/g | resveratrol content in seeds (Georgia-06G peanut seeds [3]; static, 20° C., Georgia-06G (2021 harvest), FIG. 11C): 50 to 100 µg/g | concentration of H2O2 that damages seeds (overall production of resveratrol drops, particularly after 72 h) (Georgia-06G peanut seeds [3]; static, 20° C., seeds to H2O2 1:6 w/v, Georgia-06G 2021): above 4%
